# Values of other authors in US11896043B2, “Intestinal immune-enhancing agent, food product, and medicament” (DAICEL CORPORATION, priority 2017, dated 2024).
# System: IgA
smiles,measurement,setting,value
"OC[C@H]1O[C@@H](O[C@H]2[C@H](O)[C@@H](O)[C@@H](O[C@]3(CO)O[C@H](CO)[C@@H](O)[C@@H]3O)O[C@@H]2CO)[C@H](O)[C@@H](O)[C@H]1O [lactosucrose, 4^G-β-D-galactosylsucrose]",amounts of IgA in the feces and cecal contents,2% and 5% LS added feed for 4 weeks,significantly increased
same,amount of IgA in the feces,after two weeks,decreased greatly
same,amount of IgA in the feces relative to the control group,one week after ingestion,about twice
